The values that follow come from publication PMC6597039, “Bioactive secondary metabolites from new endophytic fungus Curvularia. sp isolated from Rauwolfia macrophylla” (PLoS ONE, 2019).

The nature of assay [1]: DPPH free radical scavenging assay. The note with it: Table 3, unit not given in the table (μM); read-out: EC50 Antioxidant activity (DPPH•). In general terms: Loss of DPPH colour is used to gauge radical scavenging.
Assay [2] can be described thus: ABTS+ free radical scavenging assay. The note with it: Table 3, unit not given in the table (μM); read-out: EC50 Antiradical activity (ABTS+).
Assay [3] concerns the target Electric eel AChE (Electrophorus electricus, UniProt O42275). Kind of assay: biochemical. The note with it: substrate ATCI, pH 8.0, 25 °C, read-out: IC50 acetylcholinesterase inhibition.
Assay [4] deals with Micrococcus luteus (DSMZ1605). Kind of assay: In vitro antibacterial assay, micro-dilution MIC. The class given is cell-based. Conditions: 30 °C, 24 h. (In broth dilution the organism is exposed to a series of concentrations in liquid medium.)
The subject of assay [5] is Escherichia coli (DSMZ1058). Kind of assay: In vitro antibacterial assay, micro-dilution MIC. The class given is cell-based. The note with it: Escherischia coli, 37 °C, 24 h.
Assay [6] deals with Staphylococcus warneri (DSMZ20036). Kind of assay: In vitro antibacterial assay, micro-dilution MIC. The note with it: 37 °C, 24 h. It counts as cell-based.
For assay [7], the system named is Escherichia coli, Micrococcus luteus, Pseudomonas agarici and Staphylococcus warneri. In words: In vitro antibacterial assay, MIC over all the tested bacterial strains. The class given is cell-based. Conditions: range over four bacterial strains; read-out: MIC ranging over all the tested bacterial strains.
For assay [8], the system named is Pseudomonas agarici (DSMZ11810). In words: In vitro antibacterial assay, micro-dilution MIC. It counts as cell-based. Conditions: 30 °C, 24 h.
The test system of assay [9] is p53-HDM2 interaction. Further details: method as in PMID 16246554. The note with it: cited from earlier work.
For assay [10], the system named is mucosal-type mast cells. The note with it: cited from earlier work.
For assay [11], the system named is Trypanosoma cruzi trypomastigotes. Further details: method as in PMID 28572816. The note with it: cited from earlier work.

≈ marks a conversion by molar mass, not a printed value.

By EC50 is commonly meant the concentration that produces a half-maximal response. The term IC50 denotes the point on the concentration scale where inhibition reaches its midpoint. In general, MIC refers to the lowest concentration found to suppress growth.

Electric eel AChE, sequence (O42275 24-633): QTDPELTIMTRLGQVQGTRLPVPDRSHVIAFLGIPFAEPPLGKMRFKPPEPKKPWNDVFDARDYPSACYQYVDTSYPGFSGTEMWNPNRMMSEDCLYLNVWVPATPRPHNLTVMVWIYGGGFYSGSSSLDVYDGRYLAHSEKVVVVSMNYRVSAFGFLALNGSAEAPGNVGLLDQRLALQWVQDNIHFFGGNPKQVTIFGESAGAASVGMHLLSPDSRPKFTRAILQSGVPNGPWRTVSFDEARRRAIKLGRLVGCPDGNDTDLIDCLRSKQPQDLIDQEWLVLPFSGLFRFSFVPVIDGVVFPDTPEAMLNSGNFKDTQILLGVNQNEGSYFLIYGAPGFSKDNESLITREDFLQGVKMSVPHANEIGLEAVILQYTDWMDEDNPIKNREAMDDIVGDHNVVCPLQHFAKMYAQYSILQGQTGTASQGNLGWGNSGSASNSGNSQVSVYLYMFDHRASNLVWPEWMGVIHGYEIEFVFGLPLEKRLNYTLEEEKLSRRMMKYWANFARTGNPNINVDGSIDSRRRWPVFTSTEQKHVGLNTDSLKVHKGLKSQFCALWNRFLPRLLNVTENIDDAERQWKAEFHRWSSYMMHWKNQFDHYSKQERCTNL

With `COc1ccc(O)c(C(C)(C)C)c1` [BHA, butylated hydroxyanisole, reference compound], the concentration giving a half-maximal response (EC50) in assay [1] is 0.13 µM; in assay [2], 0.01 µM.

With `Cc1cc(C(C)(C)C)c(O)c(C(C)(C)C)c1` [BHT, butylated hydroxytoluene, reference compound], the EC50 in assay [1] stood at 0.46 µM; in assay [2] it was 0.06 µM.

Take `O=C1CC(O)C(CO)O1` (stereo not drawn) [Compound 1, 2'-deoxyribolactone]: the half-maximal inhibitory concentration (IC50) in assay [3] stood at 1930 nM. The MIC is 0.32 µg/mL (≈ 2.42 µM) in assay [4]; 0.3 µg/mL (≈ 2.27 µM) in assay [5]; 0.17 µg/mL (≈ 1.29 µM) in assay [6]; 0.17 to 0.58 µg/mL (≈ 1.29 to 4.39 µM) in assay [7]; 0.19 µg/mL (≈ 1.44 µM) in assay [8]. The EC50 in assay [1] is 0.66 ± 0.02 µM; in [2], 0.49 ± 0.02 µM.

Regarding `C=C(C(=O)O)C(CCCCCC)C(=O)O` (stereo not drawn) [Compound 2, hexylitaconic acid], the concentration for half-maximal inhibition (IC50) in assay [3] was 1540 nM. Besides, the MIC in [4] is 0.29 µg/mL (≈ 1.35 µM); in [5], 0.58 µg/mL (≈ 2.71 µM); in [6], 0.58 µg/mL (≈ 2.71 µM); in [7], 0.17 to 0.58 µg/mL (≈ 0.793 to 2.71 µM); in assay [8], 0.29 µg/mL (≈ 1.35 µM). Further, the “inhibition of p53-HDM2 interaction” value in [9] is given as “inhibitor”. The EC50 in [1] amounted to 0.56 ± 0.02 µM; in assay [2], 0.88 ± 0.02 µM.

As to `CC(C)[C@@H](C)/C=C/[C@@H](C)[C@H]1CC[C@H]2C3=CC=C4C[C@@H](O)CC[C@]4(C)[C@H]3CC[C@]12C` [Compound 3, ergosterol], the half-maximal inhibitory concentration (IC50) in assay [3] was 1520 nM. Moreover, the “effect on the activity of mucosal-type mast cells” value in assay [10] is “inhibitory effect”. For the same molecule, the EC50 in assay [1] was 1.09 ± 0.02 µM; in [2] it was 0.83 ± 0.02 µM. For the same molecule, the “IC50 anti-Trypanosoma cruzi activity against trypomastigotes” value in assay [11] was 51.3 µg/mL (≈ 129 µM).

Turning to `CNC(C)C1CCC(N)C(OC2C(N)CC(N)C(OC3OCC(C)(O)C(NC)C3O)C2O)O1` (stereo not drawn) [Gentamicin, reference compound], the minimal inhibitory concentration (MIC) in [4], in assay [5], in assay [6] and in [8] was 0.01 µg/mL (≈ 0.0209 µM) in each case.
